One data set relates to removed guinea pig heart. The data set can be described thus: Cardiovascular activity measured according to Langedorff's method by using the removed guinea pig heart. The settings on record: Concentration 10^-4 g/ml; for Heart Movements: Amplitude / Heart Movements: Tonus: arrow symbols. Here is the method: (§1) For administration of the compounds of this invention into the human body, it is recommended to give them at the dose of 10 to 500 mg/day for internal administration and 1 to 50 mg/day for intravenous aministration. The compounds can be administered as such or in combination with a pharmaceutical carrier conventionally employed in cardiovascular and like preparations.

Another data set in a line: LD50 on mice. To be noted: in vivo, ip; mouse. Here is the method: as §1

SMILES strings stand for the structures.

With `COc1ccc(CN2CCN(CC=C(C)C)CC2)c(OC)c1OC` [Example 1], in the data set on removed guinea pig heart, the “Coronary perfusion pressure (Δ%)” value was 5.7 Δ%, the “Heart rate (Δ%)” value is reported as -18.2 Δ%, the “Heart Movements: Amplitude” value is reported as “.dwnarw” and the “Heart Movements: Tonus” value is given as “→”.

`COc1ccc(CN2CCN(CC=Cc3ccccc3)CC2)c(OC)c1OC` [Example 2]: in the data set on removed guinea pig heart, the “Coronary perfusion pressure (Δ%)” value is -11.1 Δ%, the “Heart rate (Δ%)” value is -60.3 Δ%, the “Heart Movements: Amplitude” value is “.dwnarw” and the “Heart Movements: Tonus” value is “→”.

With `COc1ccc(CN2CCN(c3nc(N)nc(N)n3)CC2)c(OC)c1OC` [Example 3], in the data set with removed guinea pig heart, the “Coronary perfusion pressure (Δ%)” value was 4.4 Δ%, the “Heart rate (Δ%)” value is reported as -21.9 Δ%, the “Heart Movements: Amplitude” value is given as “.dwnarw” and the “Heart Movements: Tonus” value was “→”.

With `COc1ccc(CN2CCN(CCN3CCOCC3)CC2)c(OC)c1OC` [Example 4], in the data set on removed guinea pig heart, the “Coronary perfusion pressure (Δ%)” value is reported as -2.1 Δ%, the “Heart rate (Δ%)” value is recorded as -8.6 Δ%, the “Heart Movements: Amplitude” value is “.uparw” and the “Heart Movements: Tonus” value was “→”. In addition, the LD50 in “LD50 on mice” stood at 567 mg/kg.

As to `COc1ccc(CN2CCN(CCN3CCN(Cc4ccc(OC)c(OC)c4OC)CC3)CC2)c(OC)c1OC` [Example 6], in the data set on removed guinea pig heart, the “Coronary perfusion pressure (Δ%)” value is given as -3.7 Δ%, the “Heart rate (Δ%)” value is on record as -11.7 Δ%, the “Heart Movements: Amplitude” value was “.dwnarw” and the “Heart Movements: Tonus” value is reported as “→”.

With `COc1ccc(CN2CCN(CCCCN3CCN(Cc4ccc(OC)c(OC)c4OC)CC3)CC2)c(OC)c1OC` [Example 7], in the data set on removed guinea pig heart, the “Coronary perfusion pressure (Δ%)” value was -18.8 Δ%, the “Heart rate (Δ%)” value is -37.5 Δ%, the “Heart Movements: Amplitude” value is “.dwnarw” and the “Heart Movements: Tonus” value is reported as “→”. Moreover, in “LD50 on mice”, the median lethal dose (LD50) came out at 239 mg/kg.

As to `COc1ccc(CN2CCN(CCCCCCN3CCN(Cc4ccc(OC)c(OC)c4OC)CC3)CC2)c(OC)c1OC` [Example 8], in the data set with removed guinea pig heart, the “Coronary perfusion pressure (Δ%)” value was -19.2 Δ%, the “Heart rate (Δ%)” value was -19.1 Δ%, the “Heart Movements: Amplitude” value is “.dwnarw” and the “Heart Movements: Tonus” value was “→”. Also, the 50% lethal dose (LD50) in the data set “LD50 on mice” is 84 mg/kg.

For `COc1ccc(CN2CCN(CCCCCCCCN3CCN(Cc4ccc(OC)c(OC)c4OC)CC3)CC2)c(OC)c1OC` [Example 9], in the data set with removed guinea pig heart, the “Coronary perfusion pressure (Δ%)” value is recorded as -10.0 Δ%, the “Heart rate (Δ%)” value is -28.6 Δ%, the “Heart Movements: Amplitude” value is “.dwnarw” and the “Heart Movements: Tonus” value was “.dwnarw”.

With `COc1ccc(CN2CCN(CCO)CC2)c(OC)c1OC` [Example 10], in the data set on removed guinea pig heart, the “Coronary perfusion pressure (Δ%)” value is on record as -4.4 Δ%, the “Heart rate (Δ%)” value is -10.7 Δ%, the “Heart Movements: Amplitude” value is given as “.dwnarw” and the “Heart Movements: Tonus” value was “.dwnarw”. In addition, in “LD50 on mice”, the median lethal dose (LD50) is 567 mg/kg.

As for `COc1ccc(CN2CCN(CC(C)O)CC2)c(OC)c1OC` (centres unmarked) [Example 11], in the data set on removed guinea pig heart, the “Coronary perfusion pressure (Δ%)” value is -11.1 Δ%, the “Heart rate (Δ%)” value is given as -49.4 Δ%, the “Heart Movements: Amplitude” value was “.dwnarw” and the “Heart Movements: Tonus” value is on record as “→”. For the same compound, in “LD50 on mice”, the LD50 was 336 mg/kg.

`COc1ccc(CN2CCN(CC(O)CO)CC2)c(OC)c1OC` (centres unmarked) [Example 12]: in the data set with removed guinea pig heart, the “Heart rate (Δ%)” value is -16.1 Δ%, the “Heart Movements: Amplitude” value is recorded as “.dwnarw” and the “Heart Movements: Tonus” value is given as “→”. Moreover, in the data set “LD50 on mice”, the LD50 is 724 mg/kg.

Turning to `COc1ccc(CN2CCN(CC(O)c3ccccc3)CC2)c(OC)c1OC` (centres unmarked) [Example 13], in the data set on removed guinea pig heart, the “Coronary perfusion pressure (Δ%)” value is -16.0 Δ%, the “Heart rate (Δ%)” value is -54.5 Δ%, the “Heart Movements: Amplitude” value is “.dwnarw” and the “Heart Movements: Tonus” value is reported as “→”. For the same compound, the LD50 in the data set “LD50 on mice” stood at 106 mg/kg.

As for `COc1ccc(CN2CCN(CC(O)COc3ccccc3)CC2)c(OC)c1OC` (centres unmarked) [Example 14], in the data set with removed guinea pig heart, the “Coronary perfusion pressure (Δ%)” value was -20.0 Δ%, the “Heart rate (Δ%)” value is reported as -48.7 Δ%, the “Heart Movements: Amplitude” value is “.dwnarw” and the “Heart Movements: Tonus” value is given as “.dwnarw”. Besides, in “LD50 on mice”, the LD50 was determined as 142 mg/kg.

What is called LD50 is the dose expected to kill half of the subjects tested.

(Values after patent US4100285A, “N-substituted trialkoxybenzyl piperazine derivatives” (Nippon Shinyaku Co., Ltd., priority 1976, dated 1978).)
